Laboratory results as given in PubChem BioAssay AID2060509 (Molecular Pharmacology Branch, DTP, NCI, 2025).

System: 485176-168-R4-J1-PDC spheroids with HUVEC/MSC, viability
Experiment: Anticancer human tumor 485176-168-R4-J1-PDC patient-derived pancreatic adenocarcinoma cell line growth inhibition [GQUAD]
Conditions: for IC50: curve of first compound; for viability, T/C: stronger effect = lower value; active means viability on the fitted dose curve at most 10% of control; inactive means the rest
Summary of the method: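 Tumor cells were grown as complex spheroids with HUVEC endothelial cells and mesenchymal stem cells as stroma. G-quadruplex stabilizers were combined with targeted agents over half-log dilutions from near the clinical Cmax, or from 10 microM.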

[1] = second compound 0.0316 µM, first compound 0.0316 µM
[2] = second compound 0.0316 µM, first compound 0.1 µM
[3] = second compound 0.0316 µM, first compound 0.316 µM
[4] = second compound 0.0316 µM, first compound 1 µM
[5] = second compound 0.0316 µM, first compound 3.16 µM
[6] = second compound 0.0316 µM, first compound 10 µM
[7] = second compound 0.1 µM, first compound 0.0316 µM
[8] = second compound 0.1 µM, first compound 0.1 µM
[9] = second compound 0.1 µM, first compound 0.316 µM
[10] = second compound 0.1 µM, first compound 1 µM
[11] = second compound 0.1 µM, first compound 3.16 µM
[12] = second compound 0.1 µM, first compound 10 µM
[13] = second compound 0.316 µM, first compound 0.0316 µM
[14] = second compound 0.316 µM, first compound 0.1 µM
[15] = second compound 0.316 µM, first compound 0.316 µM
[16] = second compound 0.316 µM, first compound 1 µM
[17] = second compound 0.316 µM, first compound 3.16 µM
[18] = second compound 0.316 µM, first compound 10 µM
[19] = second compound 1 µM, first compound 0.0316 µM
[20] = second compound 1 µM, first compound 0.1 µM
[21] = second compound 1 µM, first compound 0.316 µM
[22] = second compound 1 µM, first compound 1 µM
[23] = second compound 1 µM, first compound 3.16 µM
[24] = second compound 1 µM, first compound 10 µM
[25] = second compound 3.16 µM, first compound 0.0316 µM
[26] = second compound 3.16 µM, first compound 0.1 µM
[27] = second compound 3.16 µM, first compound 0.316 µM
[28] = second compound 3.16 µM, first compound 1 µM
[29] = second compound 3.16 µM, first compound 3.16 µM
[30] = second compound 3.16 µM, first compound 10 µM
[31] = second compound 10 µM, first compound 0.0316 µM
[32] = second compound 10 µM, first compound 0.1 µM
[33] = second compound 10 µM, first compound 0.316 µM
[34] = second compound 10 µM, first compound 1 µM
[35] = second compound 10 µM, first compound 3.16 µM
[36] = second compound 10 µM, first compound 10 µM
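Further: spheroids exposed to compounds for seven days before readout.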
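Wherever viability, T/C is given: percent viability relative to DMSO vehicle control wells as 100%.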

C#Cc1c(F)ccc2cc(O)cc(-c3ncc4c(N5CC6CCC(C5)N6)nc(OCC56CCCN5CC(F)C6)nc4c3F)c12 (stereo unspecified) + Cc1[nH]c2ccc(F)cc2c1-c1nc2c3cccnc3c3ncccc3c2[nH]1
> 10000 nM: IC50 (second compound 0.0316 µM) | IC50 (second compound 0.1 µM) | IC50 (second compound 0.316 µM) | IC50 (second compound 1 µM) | IC50 (second compound 3.16 µM) | IC50 (second compound 10 µM)
inactive: viability, T/C [1] 92.5% | viability, T/C [2] 95.7% | viability, T/C [3] 91.5% | viability, T/C [4] 84.1% | viability, T/C [5] 90.3% | viability, T/C [6] 89.7% | viability, T/C [7] 93% | viability, T/C [8] 102% | viability, T/C [9] 101% | viability, T/C [10] 109% | viability, T/C [11] 103% | viability, T/C [12] 93.6% | viability, T/C [13] 91% | viability, T/C [14] 101% | viability, T/C [15] 93.4% | viability, T/C [16] 107% | viability, T/C [17] 99.1% | viability, T/C [18] 87% | viability, T/C [19] 105% | viability, T/C [20] 89.2% | viability, T/C [21] 92.4% | viability, T/C [22] 81.5% | viability, T/C [23] 109% | viability, T/C [24] 93% | viability, T/C [25] 98.9% | viability, T/C [26] 80.9% | viability, T/C [27] 105% | viability, T/C [28] 97.6% | viability, T/C [29] 90.4% | viability, T/C [30] 95.3% | viability, T/C [31] 96.6% | viability, T/C [32] 92% | viability, T/C [33] 82.7% | viability, T/C [34] 87.8% | viability, T/C [35] 85.1% | viability, T/C [36] 86.5%

C=CCn1c(=O)c2cnc(Nc3ccc(N4CCN(C)CC4)cc3)nc2n1-c1cccc(C(C)(C)O)n1 + Cc1[nH]c2ccc(F)cc2c1-c1nc2c3cccnc3c3ncccc3c2[nH]1
309 nM: IC50 (second compound 10 µM)
469 nM: IC50 (second compound 0.316 µM)
360 nM: IC50 (second compound 3.16 µM)
inactive: viability, T/C [1] 103% | viability, T/C [2] 96.9% | viability, T/C [3] 55.1% | viability, T/C [4] 22.6% | viability, T/C [7] 105% | viability, T/C [8] 82.8% | viability, T/C [9] 60.2% | viability, T/C [10] 20% | viability, T/C [13] 98.2% | viability, T/C [14] 81.1% | viability, T/C [15] 65.8% | viability, T/C [16] 25% | viability, T/C [19] 115% | viability, T/C [20] 94.4% | viability, T/C [21] 66.7% | viability, T/C [22] 22% | viability, T/C [25] 114% | viability, T/C [26] 75.1% | viability, T/C [27] 63.7% | viability, T/C [28] 23.2% | viability, T/C [29] 6.68% | viability, T/C [31] 101% | viability, T/C [32] 82.4% | viability, T/C [33] 50.1% | viability, T/C [34] 18.9%
active: viability, T/C [5] 7.84% | viability, T/C [6] 3.33% | viability, T/C [11] 7.9% | viability, T/C [12] 4.23% | viability, T/C [17] 6.26% | viability, T/C [18] 4.73% | viability, T/C [23] 7.76% | viability, T/C [24] 4.28% | viability, T/C [30] 4.03% | viability, T/C [35] 5.54% | viability, T/C [36] 3.76%
468 nM: IC50 (second compound 1 µM)
386 nM: IC50 (second compound 0.1 µM)
401 nM: IC50 (second compound 0.0316 µM)

CC(C)(O)C1CCC(Nc2ccc3ncc(-c4cccc(C(F)(F)F)c4)n3n2)CC1 (stereo unspecified) + Cc1[nH]c2ccc(F)cc2c1-c1nc2c3cccnc3c3ncccc3c2[nH]1
2590 nM: IC50 (second compound 1 µM)
8530 nM: IC50 (second compound 0.316 µM)
2560 nM: IC50 (second compound 10 µM)
2760 nM: IC50 (second compound 3.16 µM)
inactive: viability, T/C [1] 80.2% | viability, T/C [2] 110% | viability, T/C [3] 84.5% | viability, T/C [4] 81.3% | viability, T/C [5] 57.7% | viability, T/C [6] 54.7% | viability, T/C [7] 93.2% | viability, T/C [8] 89.3% | viability, T/C [9] 86.8% | viability, T/C [10] 88.4% | viability, T/C [11] 61% | viability, T/C [12] 59.9% | viability, T/C [13] 93.6% | viability, T/C [14] 100% | viability, T/C [15] 86.8% | viability, T/C [16] 82.3% | viability, T/C [17] 58% | viability, T/C [18] 49.1% | viability, T/C [19] 82.9% | viability, T/C [20] 93.1% | viability, T/C [21] 108% | viability, T/C [22] 77.6% | viability, T/C [23] 47.3% | viability, T/C [24] 40.5% | viability, T/C [25] 76.9% | viability, T/C [26] 83.7% | viability, T/C [27] 88.6% | viability, T/C [28] 78.6% | viability, T/C [29] 46.2% | viability, T/C [30] 33.1% | viability, T/C [31] 92% | viability, T/C [32] 55.6% | viability, T/C [33] 70.3% | viability, T/C [34] 75.3% | viability, T/C [35] 40.3% | viability, T/C [36] 29.5%
> 10000 nM: IC50 (second compound 0.0316 µM) | IC50 (second compound 0.1 µM)
